Reference: patent US20250339531A1, “DUX4 POLYPEPTIDES AND NUCLEIC ACIDS FOR TREATING INFLAMMATORY AND AUTOIMMUNE CONDITIONS” (Fred Hutchinson Cancer Center, priority 2021, published 2025)
Entries after “also recorded” stand apart in the source; their conditions may differ.

Tests used:
Type in all cases: cell-based, human
Pol-II = assay: CUT&Tag of Pol-II occupancy; details: MB135-iDUX4-CTD cells, IFNG ± doxycycline
Procedure: CUT&Tag was performed as previously described (Kaya-Okur et al., 2019) with the following modifications: MB135-iDUX4-CTD myoblasts were plated and allowed to grow to 70-80% confluence. Cells were left untreated, treated with 200 ng/ml IFNG for 16 hr, or pre-treated with 1 μg/mL doxycycline for 4 hr then had IFNG added directly to cell media for an additional 16 hr. Fresh cells were harvested and washed in PBS, crosslinked with 0.1% formaldehyde for 90 seconds, then counted and 1.25e6 cells were aliquoted per reaction tube. Drosophila S2 cells were spiked-in at a genomic ratio of 1:10. Nuclei were prepared from cells in Buffer NE1 (20 mM HEPES-KOH PH7.9, 10 mM KCl, 0.1% Triton X-100, 20% glycerol, 0.5 mM spermidine, Pierce Protease Inhibitors EDTA-free [PIA32955]) on ice for 10 min and then bound to concanavalin A-coated beads for 10 min. […]
CUT&Tag data were aligned to the GRCh38 patch 13 human genome e following the Benchtop CUT&Tag v3 protocol (Kaya-Okur et al., 2019). Subsequent to alignment we calculated 1× genome coverage normalization with read centering and read extension using deepTools' bamCoverage (Ramírez, 2016) then mapped the resulting coverage tracks to regions of interest using bedtools' map function (Aaron R. Quinlan, 2010). […]

[1] = system: RPL10A, RPL4, RPS6, RPS15A, MYOD1, DES; assay: Immunoblot of ribosomal proteins and myogenic factors; details: DUX4 pulse+IFNG relative to IFNG
Procedure: (§1) Protein samples were harvested in RIPA buffer [150 mM NaCl, 1% NP-40, 0.5% Na-deocycholate, 1% SDS, 25 mM Tris-HCl pH7.4] supplemented with protease and phosphatase inhibitor tablets (Pierce), followed by sonication in Diagenode Bioruptor. Lysate was cleared by centrifugation at 16000×g and quantified using a Pierce BCA assay (Thermo Fisher Scientific). Samples were run on NuPAGE precast polyacrylamide gels (Invitrogen) and transferred to PVDF membrane. Membranes were blocked in PBS containing 0.1% Tween-20 and 5% non-fat dry milk before overnight incubation at 4° C. with primary antibodies (see resource table for a list of antibodies used in this study). Membranes were incubated with horseradish peroxidase-conjugated secondary antibodies for 1 hour at room temperature and SuperSignal chemiluminescent substrate (Thermo Scientific) was used for detection on film with a Mini-medical 90 processor. Membranes were stripped with Restore Western Blot Stripping Buffer (Pierce).

HLA-E = assay: Immunoblot of non-canonical MHC class I HLA-E; details: MB135iDUX4 cells
Procedure: as §1

T-cell activation = assay: Activation of NYESO TCR-engineered T cells by NYESO expressing MEL375 cells (IFNG and IL-2 secretion); details: pulse-expression 24 hrs prior to T-cell addition
Description: To determine whether the combined short- and long-term mechanisms of MHC protein expression in response to cytokine signaling is sufficient to prevent T-cell activation, NYESO expressing MEL375 cells were used in an assay with T-cells engineered with the TCR (T Cell Receptor) for the NYESO antigen and measured T-cell activation by secretion of IFNG and IL-2.

[2] = system: HLA-A, HLA-B, HLA-C, PSMB8, PSMB9, PSMB10 mRNA; assay: mRNA levels of MHC-I and immunoproteasome genes (RT-PCR, RNA-seq); details: MB135iDUX4 cells
Procedure: Myoblasts were transfected with either (final concentrations) 10 μM 2′,3′-cGAMP (Sigma Aldrich), 2 μg/mL poly(I:C) (Invitrogen), or 1 μg/mL 3′ppp-dsRNA RIG-I ligand (Dan Stetson Lab, UW) using Lipofectamine 2000 according to manufacturer's protocol, or were stimulated with 1000U IFNβ (PeproTech) or 200 ng/ml IFNγ (R+D Systems) by addition directly to cell culture medium. After 16 hours of immune stimulation, RNA was collected from cells using the NucleoSpin RNA Kit (Macherey-Nagel) according to manufacturer's instructions. RNA samples were quantified by nanodrop and 1 μg of RNA per sample was treated with DNase I Amplification Grade (Thermo Fisher), and then synthesized into cDNA using the Superscript IV First-Strand Synthesis System, including oligo dT primers (Invitrogen). qPCR was run in 384-well plates on an Applied Biosystems QuantStudio 6 Flex Real-Time PCR System (ABI) and analyzed in Microsoft Excel.
Total RNA was isolated using the NucleoSpin RNA kit (Machery-Nagel) or Direct-zol RNA Mini-Prep Kit (Zymo Research) according to manufacturer's instructions. RNA-seq libraries were prepared using the Illumina TruSeq RNA Sample Prep v2 Kit and sequenced using 50 bp paired-end sequencing on the Illumina NextSeq platform by the Fred Hutchinson Cancer Center Genomics Core.

Substance | Pol-II recruitment to ISGs (Pol-II) | protein levels of ribosomal proteins and myogenic factors [1] | effect on IFNG-induced HLA-E protein (HLA-E) | T-cell activation (IFNG and IL-2 secretion) (T-cell activation) | effect on IFNG-induced mRNAs of MHC class I / immunoproteasome genes, continuous protocol [2] | effect on IFNG-induced mRNAs of MHC class I / immunoproteasome genes, pulsed protocol [2]
longCTD: 3×FLAG tag and nls in frame with carboxyterminal 271 amino acids of DUX4 (aa154-424), SEQ ID NOS: 8-9 | blocked Pol-II recruitment to ISGs without affecting occupancy at other genes; also recorded: blocks Pol-II recruitment | – | – | – | – | –
DUX4: human DUX4 protein SEQ ID NO:3 expressed from doxycycline inducible codon altered transgene SEQ ID NO:2 | – | RPL10A, RPL4, RPS6, and RPS15A are suppressed by DUX4; also recorded: both were suppressed at the protein level | does not suppress the noncanonical MHC class E (HLA-E); also recorded: maintaining HLA-E in multiple cell types | completely blocks the T-cell activation by the NYESO expressing MEL375 cells | profound inhibition of the IFNG-induction of the mRNA for MHC class I genes; also recorded: partially suppresses the IFNG induction of the mRNAs for PSMB8, 9, and 10; also recorded: partly blocked IFNG stimulation of HLA-A, HLA-B, HLA-C, PSMB8, PMSB9, and PSMB10 mRNA levels | little suppression of their mRNAs; also recorded: nearly full induction of these mRNAs; also recorded: still exhibited IFNG-induced mRNA levels significantly above untreated samples
